This passage reports Ki results from ChEMBL document CHEMBL5725377, “BET bromodomain inhibitors and therapeutic methods using the same” (2017).

T2 sequence (Q15059 whole entry): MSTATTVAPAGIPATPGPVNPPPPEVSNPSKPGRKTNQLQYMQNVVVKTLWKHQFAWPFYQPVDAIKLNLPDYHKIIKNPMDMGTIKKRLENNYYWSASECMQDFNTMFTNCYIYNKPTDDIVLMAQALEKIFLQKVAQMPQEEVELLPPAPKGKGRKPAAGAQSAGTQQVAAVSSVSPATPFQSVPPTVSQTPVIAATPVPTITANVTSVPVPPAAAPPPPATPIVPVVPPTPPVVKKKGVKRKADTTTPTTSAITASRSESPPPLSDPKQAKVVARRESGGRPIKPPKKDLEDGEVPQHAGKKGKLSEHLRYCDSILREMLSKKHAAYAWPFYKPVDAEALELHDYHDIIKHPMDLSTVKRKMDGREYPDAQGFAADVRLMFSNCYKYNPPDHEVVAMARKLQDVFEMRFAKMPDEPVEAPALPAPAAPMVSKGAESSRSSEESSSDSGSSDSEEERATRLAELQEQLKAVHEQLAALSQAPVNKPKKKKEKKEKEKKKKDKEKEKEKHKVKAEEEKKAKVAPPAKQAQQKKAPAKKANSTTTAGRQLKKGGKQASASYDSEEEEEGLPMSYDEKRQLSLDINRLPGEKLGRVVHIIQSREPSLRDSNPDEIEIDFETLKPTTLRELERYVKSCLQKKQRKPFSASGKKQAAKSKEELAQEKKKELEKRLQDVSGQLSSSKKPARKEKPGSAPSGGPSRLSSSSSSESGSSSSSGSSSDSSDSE

The first assay deals with T1, Bromodomain-containing protein 2 (Homo sapiens, UniProt P25440). Description: (§1) FP Competitive Binding Assay (No.350): Fluorescence Polarization (FP) competitive binding studies (see above) were carried out using the FAM labeled fluorescent probe Cpd. No. 350 to determine binding affinities of representative compounds to both BD1 and BD2 of BRD2, BRD3, and BRD4 proteins. Equilibrium dissociation constants (Id) values of Cpd. […] Final Cpd. […] Kd values of Cpd.
T1 sequence (P25440 whole entry): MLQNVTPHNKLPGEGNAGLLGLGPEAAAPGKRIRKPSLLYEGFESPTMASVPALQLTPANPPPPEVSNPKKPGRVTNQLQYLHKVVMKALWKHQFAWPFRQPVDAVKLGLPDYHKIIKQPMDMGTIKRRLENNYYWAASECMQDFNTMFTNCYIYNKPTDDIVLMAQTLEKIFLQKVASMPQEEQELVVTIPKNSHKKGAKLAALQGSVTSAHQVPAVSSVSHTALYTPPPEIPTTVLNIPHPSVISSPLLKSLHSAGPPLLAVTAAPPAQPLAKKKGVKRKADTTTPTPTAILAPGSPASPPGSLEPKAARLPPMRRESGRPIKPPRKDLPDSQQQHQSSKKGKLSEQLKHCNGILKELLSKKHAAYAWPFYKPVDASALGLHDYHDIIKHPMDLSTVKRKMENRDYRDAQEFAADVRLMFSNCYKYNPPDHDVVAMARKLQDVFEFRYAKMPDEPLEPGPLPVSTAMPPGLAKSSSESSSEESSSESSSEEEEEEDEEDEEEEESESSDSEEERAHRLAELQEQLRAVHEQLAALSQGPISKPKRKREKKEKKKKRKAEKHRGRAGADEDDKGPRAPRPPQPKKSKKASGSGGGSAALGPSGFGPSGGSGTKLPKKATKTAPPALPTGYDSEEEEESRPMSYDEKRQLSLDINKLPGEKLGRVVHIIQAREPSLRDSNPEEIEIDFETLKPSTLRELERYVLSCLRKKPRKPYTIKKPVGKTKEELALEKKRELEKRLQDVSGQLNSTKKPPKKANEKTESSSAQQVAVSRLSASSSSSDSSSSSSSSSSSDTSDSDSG
`COc1cc2c(cc1-c1c(C)noc1C)[nH]c1nc(C)nc(-c3cc(C(=O)NC4CCN(C)CC4)cc(C(C)(C)C)c3)c12` showed an inhibition constant (Ki) of 5.2 nM.

As for `COc1cc2c(cc1-c1c(C)noc1C)[nH]c1nc(C)nc(-c3ccc(NC(=O)N4CCN(C)CC4)c4ccccc34)c12`, the Ki is 2.6 nM.

Compound `COc1cc2c(cc1-c1c(C)noc1C)[nH]c1nc(C)nc(-c3ccc(NC(=O)N4CCN(C5COC5)CC4)c4ccccc34)c12` returned a Ki of 7.8 nM.

The next assay addresses T1, Bromodomain-containing protein 2. Described as §1.
With `COc1cc2c(cc1-c1c(C)noc1C)[nH]c1nc(C)nc(-c3cc(C(=O)NC4CCN(C)CC4)cc(C(C)(C)C)c3)c12`, the Ki is 2.2 nM.

Consider `COc1cc2c(cc1-c1c(C)noc1C)[nH]c1nc(C)nc(-c3ccc(NC(=O)N4CCN(C)CC4)c4ccccc34)c12`, for which the Ki is 4.6 nM.

In the case of `COc1cc2c(cc1-c1c(C)noc1C)[nH]c1nc(C)nc(-c3ccc(NC(=O)N4CCN(C5COC5)CC4)c4ccccc34)c12`, the affinity corresponds to a Ki of 17 nM.

A further assay deals with Bromodomain-containing protein 4 (Homo sapiens, UniProt O60885). The description is as §1.
Take `COc1cc2c(cc1-c1c(C)noc1C)[nH]c1nc(C)nc(-c3cc(C(=O)NC4CCN(C)CC4)cc(C(C)(C)C)c3)c12`: the affinity, expressed as Ki, was 9 nM.

`COc1cc2c(cc1-c1c(C)noc1C)[nH]c1nc(C)nc(-c3ccc(NC(=O)N4CCN(C)CC4)c4ccccc34)c12` gave a Ki of 11 nM.

For `COc1cc2c(cc1-c1c(C)noc1C)[nH]c1nc(C)nc(-c3ccc(NC(=O)N4CCN(C5COC5)CC4)c4ccccc34)c12`, the Ki was determined as 39 nM.

A further assay addresses T2, Bromodomain-containing protein 3 (Homo sapiens, UniProt Q15059). The description is as §1.
Compound `COc1cc2c(cc1-c1c(C)noc1C)[nH]c1nc(C)nc(-c3cc(C(=O)NC4CCN(C)CC4)cc(C(C)(C)C)c3)c12` registered a Ki of 6.3 nM.

In turn, `COc1cc2c(cc1-c1c(C)noc1C)[nH]c1nc(C)nc(-c3ccc(NC(=O)N4CCN(C)CC4)c4ccccc34)c12` showed a Ki of 7.5 nM.

Compound `COc1cc2c(cc1-c1c(C)noc1C)[nH]c1nc(C)nc(-c3ccc(NC(=O)N4CCN(C5COC5)CC4)c4ccccc34)c12` returned an inhibition constant (Ki) of 23 nM.

The target of the next assay is T2, Bromodomain-containing protein 3. The description is as §1. This is another data set of the same source.
As to `COc1cc2c(cc1-c1c(C)noc1C)[nH]c1nc(C)nc(-c3cc(C(=O)NC4CCN(C)CC4)cc(C(C)(C)C)c3)c12`, the affinity corresponds to a Ki of 1.1 nM.

As for `COc1cc2c(cc1-c1c(C)noc1C)[nH]c1nc(C)nc(-c3ccc(NC(=O)N4CCN(C)CC4)c4ccccc34)c12`, the Ki is 0.82 nM.

As to `COc1cc2c(cc1-c1c(C)noc1C)[nH]c1nc(C)nc(-c3ccc(NC(=O)N4CCN(C5COC5)CC4)c4ccccc34)c12`, the affinity corresponds to a Ki of 3.5 nM.
